The results in this text go back to ChEMBL document CHEMBL4138105, “LL-37-derived short antimicrobial peptide KR-12-a5 and its d-amino acid substituted analogs with cell selectivity, anti-biofilm activity, synergistic effect with conventional antibiotics, and anti-inflammatory activity” (Eur J Med Chem, 2017).

Values after ≈ are worked out from the molar mass of the structure shown. Active and inactive are the calls of the source. The rule behind the calls is not given here.

Assay [1] deals with Staphylococcus aureus. The assay can be described thus: Antibacterial activity against Staphylococcus aureus KCTC 1621 assessed as cytoplasmic membrane depolarization at 2 times MIC by disC3-5 dye based fluorescence assay. The format is functional, organism-based.
Assay [2] concerns Staphylococcus aureus. The assay can be described thus: Antibacterial activity against Staphylococcus aureus KCTC 1621 assessed as cell membrane disruption at 2 times MIC within 4 mins by Sytox Green dye based fluorescence spectrophotometer assay. Format: functional, organism-based.
A further assay deals with Enterococcus faecium. Nature of the assay: Antibacterial activity against Vancomycin-resistant Enterococcus faecium ATCC 51559 after 24 hrs. The settings on record: ATCC 51559, 24 h. Format: functional.

Usually MIC stands for the least concentration at which growth counts as inhibited. On to `CC[C@H](C)[C@H](NC(=O)CN)C(=O)NCC(=O)N[C@@H](C)C(=O)N[C@H](C(=O)N[C@@H](CC(C)C)C(=O)N[C@@H](CCCCN)C(=O)N[C@H](C(=O)N[C@@H](CC(C)C)C(=O)N[C@H](C(=O)N[C@H](C(=O)NCC(=O)N[C@@H](CC(C)C)C(=O)N1CCC[C@H]1C(=O)N[C@@H](C)C(=O)N[C@@H](CC(C)C)C(=O)N[C@H](C(=O)N[C@@H](CO)C(=O)N[C@@H](Cc1c[nH]c2ccccc12)C(=O)N[C@H](C(=O)N[C@@H](CCCCN)C(=O)N[C@@H](CCCNC(=N)N)C(=O)N[C@@H](CCCCN)C(=O)N[C@@H](CCCNC(=N)N)C(=O)N[C@@H](CCC(N)=O)C(=O)N[C@@H](CCC(N)=O)C(N)=O)[C@@H](C)CC)[C@@H](C)CC)[C@@H](C)O)[C@@H](C)O)C(C)C)C(C)C` [MELITTIN], for which the outcome with Staphylococcus aureus [1] and in the assay with Staphylococcus aureus [2] was Active. This compound also showed an MIC with Enterococcus faecium of 16 µM (≈ 45.5 µg/mL).
